According to US20080207738A1, “DRUG COMBINATIONS TO TREAT DRUG RESISTANT TUMORS” (priority 2007, published 2008):
Read-outs that look alike come from different tables or passages of the source.

What was measured:
MCF-7/ADR cells = experiment: MTT cell viability, MCF-7/ADR cells; type: cell-based, human; conditions: 72 h, CCcompound104 5 μg/ml, EA 60 μM, CCcompound26/CCcompound3/CCcompound19 50 μM, alone or combined
Experimental: MCF/ADR cells were selected by incubating the parent MCF-7 with toxic concentrations (up to 10 μM) of adriamycin (doxorubicin). The selected drug resistant cells express both MDR1 and MRP1 among other molecular alterations as reviewed earlier [Kiss, Z., Tomono, M. and Anderson, W. B. (1994), “Phorbol ester selectively stimulates the phospholipase D-mediated hydrolysis of phosphatidylethanolamine in multidrug-resistant MCF-7 human breast carcinoma cells,” Biochem. J., 302, 649-654]. […] Ethacrynic acid (EA) alone, used at 60 μM concentration, decreased cell viability by about 24%, while CCcompound104 and EA in combination had 70% inhibitory effects (Table 7). In this cell line CCcompound104 and EA decreased cell viability synergistically.

in vitro = conditions: human
From the text: (§1) For the determination of relative number of viable cells before and after treatments, in most cases the MTT assay was used. This calorimetric assay is based on the ability of living cells, but not dead cells, to reduce 3-(4, 5-dimethyl thiazol-2-yl)-2, 5-diphenyltetrazolium bromide [Carmichael, J, De Graff, W. G., Gazdar, A. F., Minna, J. D. and Mitchell, J. B. (1987), “Evaluation oftetrazolium-based semiautomated calorimetric assay: Assessment of chemosensitivity testing,” Cancer Res., 47, 936-942]. For this assay, cells were plated in 96-well plates (10,000-30,000 cells in case of cultured cells, 100,000 cells in case of healthy lymphocytes, and 200,000 cells in case of chronic lymphocytic leukemia or non-Hodgkin lymphocytes) in the respective incubation media. After a 24-h resting period, the cells were treated with the test agents and then incubated (in CO2 incubator under humidified atmosphere) for 72 hours (final incubation volume, 150 μl). The MTT assay was performed both with the untreated and treated cell cultures at the conclusion of the incubation. Often, the MTT assay also was performed at the start of treatments to allow assessment of proliferation rates in the control and treated cell cultures. All data presented are the average of 4 incubations (in 4 separate wells) with the same cell population.
Peripheral lymphocytes are known to be very sensitive to chemotherapy and this sensitivity often limits the dose of chemotherapy that can be employed. In this series of experiments, the combined effects of CCcompound104 alone or in combination with CCcompound26 or CCcompound3 were determined on the viability of peripheral lymphocytes to establish doses that reduce cell viability less than 50%. As in previous experiments, the treatments were performed for 72 hours.

CLL cells = experiment: cells; conditions: Homo sapiens, CLL cell; for cytotoxicity at 5 µM: 72 h, CCcompound3 5 μM, alone or combined
Experimental: Heparinized peripheral-blood samples were obtained from chronic lymphocytic leukemia patients with more than 70% malignant cells after informed consent, in accordance with the Declaration of Helsinki. The blood samples (10-ml) were diluted 1:1 with cold phosphate buffered saline (PBS; 0.135 M NaCl, 2.7 mM KCl, 1.5 mM KH2PO4, 8 mM Na2HPO4 [pH 7.4]) and layered onto Ficoll-Hypaque (8-ml, specific gravity, 1.086; Life Technologies, Grand Island, N.Y.). Then, the blood was centrifuged at 433 g for 20 min, and mononuclear cells were removed from the interphase. Cells were washed twice with cold PBS and after each centrifugation step the pelleted cells were resuspended in 10-ml RPMI 1640 supplemented with 10% fetal bovine serum (inactivated for 30 min at 56° C.). A Coulter channelyzer (Coulter Electronics, Hialeah, Fla.) was used to determine the cell number. Then the number of cells was adjusted to 1×10^7 cells per 1 ml before using them for the experiments.
as §1

[1] = system: L5178/MDR1 mouse T-cell lymphoma cells; experiment: cells; conditions: mouse, 72 h
From the text: as §1
L5178/MDR1 cells were seeded at 10,000 cells per well in 96-well plates and then incubated for 72 hours in the absence or presence of 5 μg/ml of CCcompound104 and various concentrations of CCcompound26 as indicated in Table 6.
(§2) Epirubicin, like doxorubicin and other antracyclins, is an MDR1 substrate. The goal of this experiment was to use epirubicin as a model compound to determine if in L5178/MDR1 cells CCcompound104 also can enhance the effects of MDR1 substrate anti-cancer agents other than CCcompound26 and other thioxanthene or thioxanthone CC compounds. The parent and MDR1 expressing cells were seeded at 30,000 cells per well in 96-well microplates and after a 24-h resting period treated with increasing concentrations of epirubicin n in the absence or presence of 5 μg/ml of CCcompound104 for 72 hours.

[2] = system: parent L5178 mouse T-cell lymphoma cells; experiment: MTT cell viability, parent L5178 cells; conditions: L5178Y, 30,000 cells per well, 72 h
From the text: as §1
Parent L5178 cells were seeded at 10,000 cells per well in 96-well plates and then incubated for 72 hours in the absence or presence of CCcompound104 (1 or 5 μg/ml) and various concentrations of CCcompound26 as indicated in Table 5.
as §2

[3] = system: lymphoma cells derived from non-Hodgkin patients; experiment: MTT cell viability, lymphoma cells from non-Hodgkin patients; type: cell-based; conditions: Homo sapiens, 72 h, CCcompound104 5 μg/ml, CCcompound26 1 μM, read-out: Inhibition (%) of viability
Experimental: Lymphoma cells derived from two non-Hodgkin lymphoma patients were treated with EA (15 μM) in the absence or presence of CCcompound104 (5 μg/ml)+CCcompound26 (1 μM) for 72 hours. […] However, the 3 agents together decreased the number of viable cells by 91 and 97%, respectively (Table 13).

MCF-7 cells = experiment: Cell viability, MCF-7 cells; type: cell-based; conditions: Homo sapiens, MCF7, 72 h, read-out: decrease of cell viability
Experimental: The MCF-7 cells were isolated from a human mammary tumor. After combined treatments with 5 μg/ml of CCcompound104 and 1 μM of CCcompound26 for 72 hours, the viability of these cells was decreased by 42%. EA (30 μM) alone decreased cell viability by 32%, while the 3 agents together decreased cell viability about 100% (i.e. practically no viable cells remained after the treatments).

With `C[N+](C)(C)CCC=C1c2ccccc2Sc2ccccc21.[I-]` [CCcompound19, N,N,N-trimethyl-3-(9H-thioxanthen-9-ylidene)-propan-1-aminium iodide] the “Inhibition (%) of viability” value (MCF-7/ADR cells) was 20.2%.

With `CC[N+](C)(CC)CCOCc1ccc2sc3ccccc3c(=O)c2c1` [CCcompound3] the “Inhibition (%) of viability” value (MCF-7/ADR cells) was 20.0%, the cytotoxicity at 72 h, 1 μM (in vitro; Inhibition (%) of viability) was 0% and the cytotoxicity at 72 h, 50 μM (in vitro; decrease of viability of healthy lymphocytes) was 6%. For the same molecule, the cytotoxicity at 5 µM (CLL cells; read-out: Inhibition (%) of viability, CLL patient 8, CCcompound104 5 μg/ml) was 7.8%, the cytotoxicity at 5 µM (CLL cells; read-out: Inhibition (%) of viability, CLL patient 9, CCcompound104 5 μg/ml) was 11.1% and the cytotoxicity at 5 µM (CLL cells; read-out: Inhibition (%) of viability, CLL patient 10, CCcompound104 5 μg/ml) was 32%. For the same molecule, the cytotoxicity at 5 µM (CLL cells; read-out: Inhibition (%) of viability, CLL patient 11, CCcompound104 5 μg/ml) was 33.3%, the cytotoxicity at 5 µM (CLL cells; read-out: Inhibition (%) of viability, CLL patient 12, CCcompound104 5 μg/ml) was 26% and the cytotoxicity at 5 µM (CLL cells; read-out: Inhibition (%) of viability, CLL patient 13, CCcompound104 5 μg/ml) was 12.5%. For the same molecule, the cytotoxicity at 5 µM (CLL cells; read-out: Inhibition (%) of viability, CLL patient 14, CCcompound104 5 μg/ml) was 36.3%, the cytotoxicity at 5 µM (CLL cells; read-out: Inhibition (%) of viability, CLL patient 15, CCcompound104 5 μg/ml) was 3.3% and the cytotoxicity at 5 µM (CLL cells; read-out: Inhibition (%) of viability, CLL patient 16, CCcompound104 5 μg/ml) was 50.1%. The cytotoxicity at 5 µM (CLL cells; read-out: Inhibition (%) of viability, CLL patient 17, CCcompound104 5 μg/ml) was 0%, the cytotoxicity at 5 µM (CLL cells; read-out: Inhibition (%) of viability, CLL patient 18, CCcompound104 5 μg/ml) was 6% and the cytotoxicity at 5 µM (CLL cells; read-out: Inhibition (%) of viability, CLL patient 19, CCcompound104 5 μg/ml) was 9.2%. The cytotoxicity at 5 µM (CLL cells; read-out: Inhibition (%) of viability, CLL patient 20, CCcompound104 5 μg/ml) was 0%.

For `COc1cccc2c1C(=O)c1c(O)c3c(c(O)c1C2=O)C[C@@](O)(C(=O)CO)C[C@@H]3O[C@H]1C[C@H](N)[C@@H](O)[C@H](C)O1` [Epirubicin, epirubicin, reference compound], the “Inhibition (%) of viability” value ([1]; 0.156 µg/ml) was 0%, the “Inhibition (%) of viability” value ([1]; 0.312 μg/ml) was 0% and the “Inhibition (%) of viability” value ([1]; 0.625 μg/ml) was 0%. The “Inhibition (%) of viability” value ([1]; 1.25 μg/ml) was 0%, the “Inhibition (%) of viability” value ([1]; 2.5 μg/ml) was 12.2% and the “Inhibition (%) of viability” value ([1]; 5 μg/ml) was 32.4%. The “Inhibition (%) of viability” value ([2]; Epirubicin 0.156 μg/ml without or with CC104 5 μg/ml) was 6.1%, the “Inhibition (%) of viability” value ([2]; Epirubicin 0.312 μg/ml without or with CC104 5 μg/ml) was 41.5% and the “Inhibition (%) of viability” value ([2]; Epirubicin 0.625 μg/ml without or with CC104 5 μg/ml) was 98.6%. For the same molecule, the “Inhibition (%) of viability” value ([2]; Epirubicin 1.250 μg/ml without or with CC104 5 μg/ml) was 100%, the “Inhibition (%) of viability” value ([2]; Epirubicin 2.500 μg/ml without or with CC104 5 μg/ml) was 100% and the “Inhibition (%) of viability” value ([2]; Epirubicin 5.000 μg/ml without or with CC104 5 μg/ml) was 100%.

Work on `C=C(CC)C(=O)c1ccc(OCC(=O)O)c(Cl)c1Cl` [EA, ethacrynic acid] yielded a cytotoxicity at 15 µM ([3]; non-Hodgkin patient 1, EA 15 μM) of 36.8%, a cytotoxicity at 15 µM ([3]; non-Hodgkin patient 2, EA 15 μM) of 42.4% and a cytotoxicity at 15 µM ([3]; non-Hodgkin patient 3, EA 15 μM) of 48.2%. The cytotoxicity at 15 µM ([3]; non-Hodgkin patient 4, EA 15 μM) was 53.1%, the cytotoxicity at 60 µM (MCF-7/ADR cells; Homo sapiens, NCI/ADR-RES, read-out: Inhibition (%) of viability) was about 24% and the cytotoxicity at 30 µM (MCF-7 cells) was 32%. For the same molecule, the cytotoxicity at 30 µM (CLL cells; read-out: Inhibition (%) of viability, resistant CLL cells, patient 17, EA 30 μM, CCcompound104 5 μg/ml, CCcompound26 1 μM) was 31.8%, the cytotoxicity at 30 µM (CLL cells; read-out: Inhibition (%) of viability, resistant CLL cells, patient 18, EA 30 μM, CCcompound104 5 μg/ml, CCcompound26 1 μM) was 38.3% and the cytotoxicity at 30 µM (CLL cells; read-out: decrease of viability of resistant CLL cells, over patients 17 and 18, EA 30 μM, CCcompound104 5 μg/ml, CCcompound26 1 μM) was 31 to 38%.
